Results from publication PMC9571628 (Molecules, 2022).
Values belong to the compound of their own block, whether it stands above or below them.

Assays:
Ugt1a7 mRNA = assay: qRT-PCR of Ugt1a7 mRNA in liver and intestines of rats after multiple doses; format: in vivo
Experimental: The qRT-PCR analysis was used to measure mRNA levels of Ugt1a7 in the liver and intestines of rats. Total RNA was isolated from frozen liver and intestine samples using the TRNzol Universal as per the manufacturer’s instructions. A Bio Tek Epoch (Bio Tek Instruments, Inc., Winooski, VT, USA) was used to quantify the concentration and purity of the total RNA based on the ratio of the absorbance between 260 and 280 nm. RNA samples of 1 μg of were converted to complementary (cDNA) using the FastKing RT Kit. The real-time PCR assays were performed using a two-step amplification method according to the manufacturer’s recommendations in a SLAN-96S Real-Time PCR system (Shanghai Hongshi Medical Technology Co., Ltd. Shanghai, China). The PCR cycling conditions were as follows: 95 °C for 15 min, followed by 40 cycles of 95 °C for 10 s and 60 °C for 32 s. The sequences of primers are listed in Table 6. β-actin was used as an internal control.

[1] = Stability of QC samples in rat plasma under different storage and processing conditions; format: physicochemical; settings: for Accuracy (RE%) / Mean ± SD concentration found: rat plasma, n = 6; for stability in rat plasma: autosampler for 6 h, room temperature for 4 h, three cycles of freezing and thawing (−80 °C to room temperature)
Experimental: The stability of QC samples in rat plasma was tested in six replicates at three concentration levels exposed to different storage and processing conditions: autosampler for 6 h after processing, room temperature for 4 h, −80 °C for 30 days, three freeze–thaw cycles (−80 °C to room temperature).

CYP450 = settings: cited from earlier work
[2] = cited from earlier work
UGT1A1 = settings: cited from earlier work
UGT1A9 = settings: cited from earlier work
[3] = Pharmacokinetic interaction study between SOR and DAPA in rats (oral gavage, plasma by UPLC-MS/MS); settings: for AUC(0-t) / AUC(0-inf) / CL/F / Cmax / MRT last / MRT inf / Tmax / Vd/F / half-life: n = 6; for AUC(0-inf): AUC0–∞; for CL/F: CLz/F; for MRT last: MRT0-t; for MRT inf: MRT0–∞; for Vd/F: Vz/F; for half-life: t1/2z;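 on all read-outs here: parameters derived by non-compartmental analysis of plasma concentration–time data, with analyte levels measured by UPLC-MS/MS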
Experimental: Analytes were quantified using Ultra-Performance Liquid Chromatography-Tandem Mass Spectrometry (UPLC-MS/MS) which consisted of an LC-30A ultra-performance liquid chromatography (Shimadzu, Kyoto, Japan) and Sciex Triple Quad 5500 tandem triple quadrupole mass spectrometer (AB Sciex, Framingham, MA, USA). Chromatographic separation was performed using an XSelect HSS T3 column (2.1 mm × 100 mm, 2.5 μm, Waters, Milford, MA, USA) at 40 °C by gradient elution. The mobile phase consisted of water with 0.1% formic acid and 5 mM ammonium acetate (phase A) and acetonitrile (phase B), and the gradient elution procedure was as follows: 0–0.5 min, 60–90% B; 0.5–3 min, 90% B; 3–3.1 min, 90–60% B; and 3.1–4 min, 60% B. The injection volume was 5 μL.
A volume of 25 µL plasma samples, 2.5 µL IS mixed working solution, and 150 μL methyl tertbutyl ether was added, then vortex-mixed for 1 min. The mixture was centrifuged at 12,000× g for 10 min. The organic phase was transferred to a new centrifuged tube and evaporated to dryness under a stream of nitrogen at room temperature. The dried samples were redissolved with 100 μL of 50% acetonitrile and briefly vortexed for 1 min, then 5 μL was injected into the UPLC-MS/MS for analysis.
Adult male Sprague-Dawley (SD) rats weighing 230 ± 30 g were provided by Beijing Weitong Lihua Experimental Animal Technology Co., Ltd. (Beijing, China). The license number is SCXK (Beijing) 2016–0011. All experimental procedures for this study were reviewed and approved by the Animal Ethics Committee of Hebei General Hospital (Shijiazhuang, China) (No. 2022072). The rats were adapted to the standard laboratory conditions (12 h dark–light cycle, temperature at approximately 23 ± 2 °C, relative humidity of 50 ± 10%) for a week. All the rats were given access to water freely, while the diet was prohibited for 12 h before administration.
Twenty-four healthy rats were randomly divided into four groups (n = 6 in each group). […] Blood samples were then centrifuged at 3500× g for 10 min at 4 °C, and the supernatant was transferred to another centrifuged tube, then stored in a −80 °C freezer until analysis.
DAS 2.1.1 Software (Mathematical Pharmacology Professional Committee of China, Shanghai, China) was used to calculate pharmacokinetic parameters with non-compartmental analysis. The pharmacokinetic analysis included AUC (area under the concentration–time curve), Cmax (maximum plasma concentration), Tmax (time to maximum plasma concentration), t1/2 (time required to eliminate half of plasma drug concentration), CLz/F (clearance of drug plasma volume per time unit), Vz/F (apparent volume of distribution), and MRT (mean residence time). SPSS 25.0 statistical software (SPSS Inc., Chicago, IL, USA) was used to statistically analyze the above-mentioned pharmacokinetic parameters. Statistical comparisons of the experimental and control groups were conducted using a nonparametric rank-sum test or t-test, depending on the data type; p < 0.05 was considered statistically significant.

[4] = design: method as in PMID 27561659; settings: following oral administration of SOR; cited from earlier work
[5] = design: method as in earlier work; settings: co-administration of neomycin; cited from earlier work
[6] = with metformin; cited from earlier work
human UGT enzymes = tested on: human UGT enzymes; design: method as in PMID 28065859; settings: in vitro studies; cited from earlier work
[7] = Autosampler for 6 h, nominal 15 ng/mL
[8] = Autosampler for 6 h, nominal 800 ng/mL
[9] = Autosampler for 6 h, nominal 1500 ng/mL
[10] = Freeze–thaw stability for three times, nominal 15 ng/mL
[11] = Freeze–thaw stability for three times, nominal 800 ng/mL
[12] = Freeze–thaw stability for three times, nominal 1500 ng/mL
[13] = Room temperature for 4 h, nominal 15 ng/mL
[14] = Room temperature for 4 h, nominal 800 ng/mL
[15] = Room temperature for 4 h, nominal 1500 ng/mL
[16] = −80 °C for 30 days, nominal 15 ng/mL
[17] = −80 °C for 30 days, nominal 800 ng/mL
[18] = −80 °C for 30 days, nominal 1500 ng/mL
[19] = co-administered with multiple doses of SOR vs control group (DAPA alone)
[20] = male, Sprague-Dawley, rat, in vivo, po, 1 mg/kg, DAPA 1 mg/kg oral with multiple-doses SOR (100 mg/kg, seven days)
[21] = male, Sprague-Dawley, rat, in vivo, po, 1 mg/kg, DAPA 1 mg/kg oral, alone
[22] = Autosampler for 6 h, nominal 10 ng/mL
[23] = Autosampler for 6 h, nominal 3750 ng/mL
[24] = Freeze–thaw stability for three times, nominal 10 ng/mL
[25] = Freeze–thaw stability for three times, nominal 3750 ng/mL
[26] = Room temperature for 4 h, nominal 10 ng/mL
[27] = Room temperature for 4 h, nominal 3750 ng/mL
[28] = −80 °C for 30 days, nominal 10 ng/mL
[29] = −80 °C for 30 days, nominal 3750 ng/mL
[30] = male, Sprague-Dawley, rat, plasma, po, 100 mg/kg, SOR 100 mg/kg oral, alone
[31] = with multiple doses of DAPA vs control group (SOR alone)

- Accuracy (RE%) [1, 7]: −0.4%
- Mean ± SD concentration found [1, 7]: 14.93 ± 0.83 ng/mL
- Accuracy (RE%) [1, 8]: 3.8%
- Mean ± SD concentration found [1, 8]: 830.00 ± 15.05 ng/mL
- Accuracy (RE%) [1, 9]: 9.6%
- Mean ± SD concentration found [1, 9]: 1643.33 ± 32.66 ng/mL
- Accuracy (RE%) [1, 10]: 1.2%
- Mean ± SD concentration found [1, 10]: 15.18 ± 0.87 ng/mL
- Accuracy (RE%) [1, 11]: −3.8%
- Mean ± SD concentration found [1, 11]: 769.83 ± 44.56 ng/mL
- Accuracy (RE%) [1, 12]: −7.4%
- Mean ± SD concentration found [1, 12]: 1388.33 ± 54.19 ng/mL
- Accuracy (RE%) [1, 13]: −0.7%
- Mean ± SD concentration found [1, 13]: 14.90 ± 0.49 ng/mL
- Accuracy (RE%) [1, 14]: 11.1%
- Mean ± SD concentration found [1, 14]: 889.00 ± 15.43 ng/mL
- Accuracy (RE%) [1, 15]: 10.2%
- Mean ± SD concentration found [1, 15]: 1653.33 ± 21.60 ng/mL
- stability in rat plasma ([1]; −80 °C for 30 days): stable
- Accuracy (RE%) [1, 16]: 2.9%
- Mean ± SD concentration found [1, 16]: 15.43 ± 1.07 ng/mL
- Accuracy (RE%) [1, 17]: 2.8%
- Mean ± SD concentration found [1, 17]: 822.17 ± 21.66 ng/mL
- Accuracy (RE%) [1, 18]: −1.1%
- Mean ± SD concentration found [1, 18]: 1483.33 ± 19.66 ng/mL
- decrease of CLz/F of DAPA [3, 19]: 40%
- elevation of MRT0–t of DAPA [3, 19]: 1.48 fold
- elevation of MRT0–∞ of DAPA [3, 19]: 1.80 fold
- elevation of Tmax of DAPA [3, 19]: 1.43 fold
- increase of AUC0–t of DAPA [3, 19]: 1.66 fold
- increase of AUC0–∞ of DAPA [3, 19]: 1.80 fold
- AUC(0-t) ([3]; male, Sprague-Dawley, rat, in vivo, po, 1 mg/kg, AUC0-t, DAPA 1 mg/kg oral with multiple-doses SOR (100 mg/kg, seven days)): 8570 ± 2860 ng·h/mL
- AUC(0-t) ([3]; male, Sprague-Dawley, rat, in vivo, po, 1 mg/kg, AUC0-t, DAPA 1 mg/kg oral, alone): 5160 ± 1030 ng·h/mL
- AUC(0-inf) [3, 20]: 9300 ± 4260 ng·h/mL
- AUC(0-inf) [3, 21]: 5180 ± 1050 ng·h/mL
- CL/F [3, 20]: 2 mL/min/kg
- CL/F [3, 21]: 3.33 mL/min/kg
- Cmax ([3]; male, Sprague-Dawley, rat, in vivo, po, 1 mg/kg, Cmax, DAPA 1 mg/kg oral with multiple-doses SOR (100 mg/kg, seven days)): 871 ± 167 ng/mL
- Cmax ([3]; male, Sprague-Dawley, rat, in vivo, po, 1 mg/kg, Cmax, DAPA 1 mg/kg oral, alone): 846 ± 76.4 ng/mL
- MRT last [3, 20]: 9.01 ± 1.22 h
- MRT last [3, 21]: 6.1 ± 0.96 h
- MRT inf [3, 20]: 11.2 ± 4.86 h
- MRT inf [3, 21]: 6.25 ± 1.07 h
- Tmax [3, 20]: 0.83 ± 0.41 h
- Tmax [3, 21]: 0.58 ± 0.2 h
- Vd/F [3, 20]: 1.12 ± 0.1 L/kg
- Vd/F [3, 21]: 1.27 ± 0.19 L/kg
- half-life [3, 20]: 7.95 ± 4.03 h
- half-life [3, 21]: 4.51 ± 0.67 h
SMILES: CCOc1ccc(Cc2cc([C@@H]3O[C@H](CO)[C@@H](O)[C@H](O)[C@H]3O)ccc2Cl)cc1 [DAPA, Dapagliflozin]
- effect on the expression of Ugt1a7 in the intestines (Ugt1a7 mRNA; DAPA administered to rats for seven consecutive days (1 mg/kg), intestines): no significant effect
- inhibition of mRNA expression of Ugt1a7 in the liver (Ugt1a7 mRNA; DAPA administered to rats for seven consecutive days (1 mg/kg), liver): 59.31%
- share metabolized by CYP450 (CYP450): < 10%
- increase of exposure of DAPA ([2]; with mefenamic acid (a strong UGT1A9 inhibitor)): 51%
- reduction of exposure of DAPA ([2]; with rifampin (a pleiotropic enzyme inducer)): 22%
- UGT1A1 inhibitor strength (UGT1A1): moderate
- UGT1A9 inhibitor strength (UGT1A9): moderate

SMILES: CNC(=O)c1cc(Oc2ccc(NC(=O)Nc3ccc(Cl)c(C(F)(F)F)c3)cc2)ccn1 [SOR, Sorafenib]
- downregulation of mRNA expression of Ugt1a7 in the intestines (Ugt1a7 mRNA; multiple doses of SOR (100 mg/kg, seven days), rat intestines): ~32.09%
- downregulation of mRNA expression of Ugt1a7 in the liver (Ugt1a7 mRNA; multiple doses of SOR (100 mg/kg, seven days), rat liver): ~32.50%
- Accuracy (RE%) [1, 22]: 0.9%
- Mean ± SD concentration found [1, 22]: 10.09 ± 0.53 ng/mL
- Accuracy (RE%) [1, 9]: 2.6%
- Mean ± SD concentration found [1, 9]: 1538.33 ± 36.56 ng/mL
- Accuracy (RE%) [1, 23]: −0.9%
- Mean ± SD concentration found [1, 23]: 3716.67 ± 66.23 ng/mL
- Accuracy (RE%) [1, 24]: −1.7%
- Mean ± SD concentration found [1, 24]: 9.84 ± 0.34 ng/mL
- Accuracy (RE%) [1, 12]: 3.3%
- Mean ± SD concentration found [1, 12]: 1550.00 ± 12.65 ng/mL
- Accuracy (RE%) [1, 25]: −4.0%
- Mean ± SD concentration found [1, 25]: 3601.67 ± 164.00 ng/mL
- Accuracy (RE%) [1, 26]: 6.8%
- Mean ± SD concentration found [1, 26]: 10.68 ± 0.55 ng/mL
- Accuracy (RE%) [1, 15]: −3.4%
- Mean ± SD concentration found [1, 15]: 1448.33 ± 18.35 ng/mL
- Accuracy (RE%) [1, 27]: −5.8%
- Mean ± SD concentration found [1, 27]: 3533.33 ± 66.23 ng/mL
- stability in rat plasma ([1]; −80 °C for 30 days): stable
- Accuracy (RE%) [1, 28]: 2.0%
- Mean ± SD concentration found [1, 28]: 10.20 ± 0.39 ng/mL
- Accuracy (RE%) [1, 18]: 2.2%
- Mean ± SD concentration found [1, 18]: 1533 ± 40.33 ng/mL
- Accuracy (RE%) [1, 29]: −4.2%
- Mean ± SD concentration found [1, 29]: 3593.33 ± 142.22 ng/mL
- time at which maximum plasma concentrations are reached [4]: approximately 3 h
- decrease of SOR exposure [5]: 54%
- change of exposure to SOR [6]: halved
- inhibition of human UGT enzymes (human UGT enzymes): one of the most powerful inhibitors
- AUC(0-t) ([3]; SOR 100 mg/kg oral, alone): 62,701.33 ± 16,697.65 μg/L × h
- Cmax ([3]; SOR 100 mg/kg oral, alone): 1547.87 ± 136.94 ng/mL
- shape of pharmacokinetic curve of SOR ([3]; after 72 h of SOR gavage): second absorption peak
- AUC(0-inf) [3, 30]: 63700 ng·h/mL
- CL/F [3, 30]: 28.2 mL/min/kg
- MRT last [3, 30]: 47.1 ± 9.48 h
- MRT inf [3, 30]: 48.7 ± 10.5 h
- Tmax [3, 30]: 7.5 ± 0.55 h
- Vd/F [3, 30]: 37.4 ± 9.78 L/kg
- half-life [3, 30]: 17.5 ± 5.65 h
- change of t1/2z, MRT0–t and MRT0–∞ of SOR between the groups ([3]; with multiple doses of DAPA vs SOR alone): no statistically significant changes
- decrease of AUC0–t of SOR [3, 31]: 50.5%
- decrease of AUC0–∞ of SOR [3, 31]: 46.2%
- decrease of Cmax of SOR [3, 31]: 41.6%
